Experimental data: ChEMBL document CHEMBL1146593, “Constituents of the stem bark of Pongamia pinnata with the potential to induce quinone reductase” (J Nat Prod, 2003)
Values after ≈ are worked out from the molar mass of the structure shown.

Assays:
[1] = Inhibition of mouse Hepa-1c1c7 cells assessed as cell viability; assay type: cell-based
[2] = Chemoprevention index, ratio of IC50 for mouse Hepa-1c1c7 cells to drug level required to double NADPH:quinone reductase activity in mouse Hepa-1c1c7 cells; assay type: functional

| SMILES | IC50 [1] [µg/mL] | Ratio [2] |
| --- | --- | --- |
| COc1cc2c(c(OC)c1C(=O)/C=C(\O)c1ccccc1)C=CC(C)(C)O2 [PRAECANSONE B] | 6.5 (≈ 17.7 µM) | 1.8 |
| COc1cc(OC)c2c(c1C=O)O[C@H](c1ccccc1)CC2=O | > 10 | >3.9 |
| COc1cc(OC)c2c(c1CC=C(C)C)O[C@H](c1ccc3c(c1)OCO3)CC2=O [PONGAPINONE B] | 19.1 (≈ 48.2 µM) | 7.6 |
| COc1cc2c(c3oc(-c4ccccc4)cc(=O)c13)C=CC(C)(C)O2 [CANDIDIN] | 4.5 (≈ 13.5 µM) | 1 |
| COc1cc2c(c(OC)c1C(=O)CC(=O)c1ccc3c(c1)OCO3)C=CC(C)(C)O2 [PONGAPINONE A] | 23.8 (≈ 58 µM) | 4.8 |
| COc1cc(OC)c2c(c1CC=C(C)C)O[C@H](c1ccccc1)CC2=O [CANDIDONE] | 4.1 (≈ 11.6 µM) | 0.9 |
| C[S+]([O-])CCCCN=C=S (stereo not given) [SULFORAPHANE] | 2.1 (≈ 11.8 µM) | 24.1 |
| C=C(C)[C@@H](O)Cc1c(OC)cc(OC)c2c1O[C@H](c1ccccc1)CC2=O | 19.3 (≈ 52.4 µM) | 4.4 |
| CO/C(=C\C(=O)c1c(OC)cc2c(c1OC)C=CC(C)(C)O2)c1ccccc1 | 9.6 (≈ 25.2 µM) | 8 |
| CC1=C[C@@H]2[C@@H](CC1)[C@](C)(O)CC[C@H]2C(C)C | > 5 | >2.2 |
